Measured values as given in patent publication US7863453B2, “Tartrate salt of isofagomine and methods of use” (Amicus Therapeutics, Inc., priority 2006, dated 2011).
Values joined by “and” are separate entries in the source; they are usually repeats but may differ in a detail not shown here. Equal entries are not always repeated. Structures can show the parent of a compound that is named as a salt. Where two headings read alike, the source gives them in different places.

How the values were obtained:
[1] = Moisture uptake studies (saturated salt solutions); assay type: physicochemical; details: for Weight gain (%): single samples; for Average weight gain (%): average of 3 samples
Source text: The moisture uptake test results of six different isofagomine tartrate samples prepared according to present invention are summarized in Tables 4 and 5.

[2] = Powder characteristics (density, flowability); assay type: physicochemical
Source text: Meanwhile, isofagomine tartrate according to the present invention has good powder characteristics, e.g., crystal size, density, and flowability, that are suitable for a pharmaceutical manufacturing process. Tables 2 and 3 summarize powder characteristics of an isofagomine tartrate sample prepared according to the present invention. […] Most batches provided more than 98%, or at minimum 90%, of isofagomine tartrate with a particle size of about 1200 μm or less.

mutant GCase = assay: Ex vivo response study, GCase levels in macrophages derived from Gaucher patients; assay type: cell-based, human
Experimental: The intracellular enhancement activity of isofagomine L-(+)-tartrate was investigated with fibroblasts established from Gaucher patients. To evaluate the effects of IFG on mutant GCase levels, an ex vivo response study with macrophages and EBV-transformed lymphoblasts derived from peripheral leukocytes of 40 patients was conducted.
The study included 21 males with type I Gaucher disease, 1 person with type III Gaucher disease, and 18 females with type I Gaucher disease. Patients ranged in age from 7 to 83 years, and 38 of 40 patients were on enzyme replacement therapy (ERT).

[3] = Phase I clinical studies in healthy volunteers, safety; assay type: in vivo, human
Experimental: (§1) Isofagomine tartrate is a pharmacological chaperone in development for the treatment of the lysosomal storage disorder Gaucher disease. Using cell-based and animal models we have shown that isofagomine increases cellular levels of glucocerebrosidase (GCase), the enzyme deficient in Gaucher disease. Randomized double-blind Phase I clinical studies were performed in 72 healthy volunteers, (39 male, 33 female). Isofagomine tartrate was orally administered as an aqueous solution. In a first-in-human single ascending dose study, doses of 8, 25, 75, 150 (two cohorts), and 300 mg were administered (6 active, 2 placebo in each cohort). In a multiple ascending dose study, doses of 25, 75, and 225 mg were administered daily for seven days (6 active, 2 placebo in each cohort).

[4] = Phase I single ascending dose study, pharmacokinetics; assay type: in vivo, human
Experimental: as §1
(§2) Mean plasma levels peaked at 3.4 hr. […] (SEM: 2 hr.).

[5] = Phase I multiple ascending dose study, pharmacokinetics; assay type: in vivo, human; details: after 7 days of oral administration
Experimental: as §1, §2

GCase = biological target: T1, GCase (Homo sapiens, UniProt P04062); assay: Phase I multiple-dose study, GCase activity in isolated white blood cells; assay type: in vivo
T1 construct: endogenous in cells; host or cells: isolated white blood cells of healthy volunteers dosed orally
T1 sequence (P04062 40-536): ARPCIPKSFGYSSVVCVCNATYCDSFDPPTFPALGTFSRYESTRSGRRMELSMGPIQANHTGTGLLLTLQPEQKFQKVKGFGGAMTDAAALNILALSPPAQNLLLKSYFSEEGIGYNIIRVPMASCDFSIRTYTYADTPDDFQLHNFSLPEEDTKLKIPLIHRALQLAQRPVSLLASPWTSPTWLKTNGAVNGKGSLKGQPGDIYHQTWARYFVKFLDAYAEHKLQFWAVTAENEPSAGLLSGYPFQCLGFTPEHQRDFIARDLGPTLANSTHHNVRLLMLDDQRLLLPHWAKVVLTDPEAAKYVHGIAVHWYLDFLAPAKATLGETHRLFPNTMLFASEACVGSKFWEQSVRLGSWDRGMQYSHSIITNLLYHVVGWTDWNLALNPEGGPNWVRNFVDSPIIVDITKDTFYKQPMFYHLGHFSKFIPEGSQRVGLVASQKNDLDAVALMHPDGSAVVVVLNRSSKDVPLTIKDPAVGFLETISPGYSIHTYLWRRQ
Experimental: as §1
In the multiple-dose study, GCase activity in isolated white blood cells was measured at days 1, 3, 5 and 7 during administration of isofagomine tartrate, and at days 9, 14 and 21 during the post-treatment washout period. […] The increase in enzyme level was dose-related, reaching approximately 3.5-fold above baseline levels.

[6] = biological target: T2, recombinant human acid β-glucosidase (GCase) (Homo sapiens, UniProt P04062); details: background statement; cited from earlier work
T2 sequence (P04062 40-536): T1 sequence (P04062 40-536)

[7] = animals, background statement; cited from earlier work

## OC[C@H]1CNC[C@@H](O)[C@@H]1O [isofagomine tartrate, Isofagomine tartrate]
[1]
  hygroscopicity: not hygroscopic
[1]; NaBr saturated solution, 24 hours, RH 59%, 20.5 °C
  Weight gain (%): 0.06% and 0.00% and 0.05%
[1]; NaBr saturated solution, 24 hours, RH 59%
  Average weight gain (%): 0.04%
[1]; NaBr saturated solution, 48 hours, RH 59%, 20.8 °C
  Weight gain (%): 0.04% and 0.02% and 0.10%
[1]; NaBr saturated solution, 48 hours, RH 59%
  Average weight gain (%): 0.05%
[1]; NaBr saturated solution, 8 days, RH 59%, 20.2 °C
  Weight gain (%): 0.06% and 0.07% and 0.10%
[1]; NaBr saturated solution, 8 days, RH 59%
  Average weight gain (%): 0.08%
[1]; NaCl saturated solution, 24 hours, RH 72%, 20.5 °C
  Weight gain (%): 0.02% and 0.00% and 0.08%
[1]; NaCl saturated solution, 24 hours, RH 72%
  Average weight gain (%): 0.04%
[1]; NaCl saturated solution, 48 hours, RH 71%, 20.8 °C
  Weight gain (%): 0.05% and 0.00% and 0.8%
[1]; NaCl saturated solution, 48 hours, RH 71%
  Average weight gain (%): 0.05%
[1]; NaCl saturated solution, 8 days, RH 72%, 20.2 °C
  Weight gain (%): 0.10% and 0.00% and 0.15%
[1]; NaCl saturated solution, 8 days, RH 72%
  Average weight gain (%): 0.08%
[1]; after exposure to 75% RH for 8 days
  moisture uptake: about 0.08%
[2]
  Bulk Density: 0.44 g/mL
  Carr Index: 15%
  Tap Density: 0.52 g/mL
[2]; listed as Isofagomine tartrate
  Bulk Density: around 0.44 g/ml
  Carr Index: 15%
Mutant GCase; macrophages from Gaucher patients, 32 of 34 responding, treated 5 days, dose-dependent
  increase in GCase levels (average): 2.8 fold
[3]; both studies
  serious adverse events: No serious adverse events occurred
  treatment-emergent adverse events: mostly mild
[3]; healthy volunteers, oral aqueous solution, single 8-300 mg and 25-225 mg daily for seven days
  tolerability: generally well tolerated at all doses
[4]; both sexes, human, plasma, single-dose study, oral, SEM 0.6 hr, read-out: time at which mean plasma levels peaked (Tmax)
  Tmax: 3.4 h
[4]; both sexes, human, plasma, single-dose study, oral, SEM 2 hr, read-out: plasma elimination half-life (converted)
  half-life: 14 h
[4]; healthy volunteers
  systemic exposure via the oral route: good systemic exposure
[4]; single-dose study, 8-300 mg
  plasma AUC and Cmax versus dose: linearly correlated with administered dose
[5]
  pharmacokinetic behavior versus dose: linear with dose
GCase; isolated white blood cells, healthy volunteers, 25-225 mg daily for seven days, dose-related, maximum reached
  increase in GCase level above baseline: approximately 3.5 fold
GCase; post-treatment washout period
  GCase levels after removal of the drug: return to near baseline levels by day 21

## OC[C@H]1CNC[C@@H](O)[C@@H]1O [isofagomine, (3R,4R,5R)-5-(hydroxymethyl)-3,4-piperidinediol]
Mutant GCase; N370S/N370S, N370S/L444P, N370S/84insG, N370S/R163X, N370S/Y212H, L444P/del 136T, L444P/F216Y, L444P/L174F, G202R/R463C, K79N/complex B exon 9/10
  effect on GCase levels in cells from patients with different genotypes: significantly increased GCase levels
Mutant GCase; macrophages
  concentration at maximum enhancement of GCase: about 30 μM
[5]
  accumulation: no unexpected accumulation
[6]
  inhibition of GCase: potent inhibitor
[7]
  blood-brain barrier crossing: cross the blood-brain barrier
